Assay results taken from article PMC11845477, “Exploring the principles behind antibiotics with limited resistance” (Nature Communications, 2025).
Where a SMILES comes first, the peptide text is derived from it. Bridges are numbered along the chain shown (N, C = ends). [ ]: non-standard residue; d: D form. The star is where a group is joined. X2 = CC[C@H](C)CCCCC(=O)*; Dab = NCC[C@H](N)C(=O)O

What was measured:
[1] = test system: K. pneumoniae ATCC 10031 (SEN) and K. pneumoniae ATCC 700603 (MDR); experiment: Adaptive laboratory evolution (ALE), relative MIC of evolved lines; type: cell-based, Klebsiella pneumoniae
Summary of the method: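 Ten parallel populations per antibiotic–ancestor pair were evolved in MHB at 37 °C, starting near 50% growth-inhibiting drug. Every 72 h they were passaged into 0.5–2.5× increasing concentrations, keeping the highest-drug well with OD600 > 0.2.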

[2] = test system: E. coli BW25113-ΔacrB; experiment: AcrAB-TolC efflux deficiency screen, relative MIC; type: cell-based, Escherichia coli; settings: ΔacrB vs wild-type
Summary of the method: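 Broth microdilution in MHB (supplemented MS for SCH79797), ten-step antibiotic dilutions, 5 × 10^5 cells/mL, 18 h at 37 °C with shaking; MIC is lowest concentration giving background-corrected OD600 < 0.05. Relative MIC as log2 ratio: ΔacrB vs wild-type; pUCacrAB vs empty pUC118 (plasmid strains under 100 µg/mL ampicillin). Mean of 3 biological replicates.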

[3] = KP-SEN (Klebsiella pneumoniae ATCC 10031), evolved line 1
[4] = KP-SEN (Klebsiella pneumoniae ATCC 10031), evolved line 2
[5] = KP-SEN (Klebsiella pneumoniae ATCC 10031), evolved line 3
[6] = KP-SEN (Klebsiella pneumoniae ATCC 10031), evolved line 9
[7] = KP-SEN, Klebsiella pneumoniae ATCC 10031, evolved line 5

## CN(C)c1cc(CNCC(C)(C)C)c(O)c2c1C[C@H]1C[C@H]3[C@H](N(C)C)C(O)=C(C(N)=O)C(=O)[C@@]3(O)C(O)=C1C2=O [Omadacycline]
[1]; [3]
  Relative MIC: 128
[1]; KP-SEN (Klebsiella pneumoniae ATCC 10031), evolved line 1 adapted to the named antibiotic
  Relative MIC (log10): 2.107
[1]; [4]
  Relative MIC: 128
[1]; KP-SEN (Klebsiella pneumoniae ATCC 10031), evolved line 2 adapted to the named antibiotic
  Relative MIC (log10): 2.107
[1]; [5]
  Relative MIC: 64
[1]; KP-SEN (Klebsiella pneumoniae ATCC 10031), evolved line 4
  Relative MIC: 64
[1]; KP-SEN (Klebsiella pneumoniae ATCC 10031), evolved line 5 adapted to the named antibiotic
  Relative MIC (log10): 2.107
[1]; KP-SEN (Klebsiella pneumoniae ATCC 10031), evolved line 6
  Relative MIC: 128
[1]; KP-SEN (Klebsiella pneumoniae ATCC 10031), evolved line 6 adapted to the named antibiotic
  Relative MIC (log10): 2.107
[1]; KP-SEN (Klebsiella pneumoniae ATCC 10031), evolved line 8
  Relative MIC: 64
[1]; [6]
  Relative MIC: 128
[1]; KP-SEN (Klebsiella pneumoniae ATCC 10031), evolved line 9 adapted to the named antibiotic
  Relative MIC (log10): 2.107
[1]; KP-SEN (Klebsiella pneumoniae ATCC 10031), evolved line 10
  Relative MIC: 128
[1]; KP-SEN ATCC 10031, evolved line 1, evolved line vs ancestor
  Relative MIC: 128
[1]; KP-SEN ATCC 10031, evolved line 2, evolved line vs ancestor
  Relative MIC: 128
[1]; KP-SEN ATCC 10031, evolved line 3, evolved line vs ancestor
  Relative MIC: 64
[1]; KP-SEN ATCC 10031, evolved line 4, evolved line vs ancestor
  Relative MIC: 64
[1]; KP-SEN ATCC 10031, evolved line 5, evolved line vs ancestor
  Relative MIC: 128
[1]; KP-SEN ATCC 10031, evolved line 6, evolved line vs ancestor
  Relative MIC: 128
[1]; KP-SEN ATCC 10031, evolved line 7, evolved line vs ancestor
  Relative MIC: 32
[1]; KP-SEN ATCC 10031, evolved line 8, evolved line vs ancestor
  Relative MIC: 64
[1]; KP-SEN ATCC 10031, evolved line 9, evolved line vs ancestor
  Relative MIC: 128
[1]; KP-SEN ATCC 10031, evolved line 10, evolved line vs ancestor
  Relative MIC: 128
[1]; [7]
  Relative MIC: 128
[1]; KP-SEN, Klebsiella pneumoniae ATCC 10031, evolved line 7
  Relative MIC: 32
[2]; replicate 1
  Relative MIC (log2): -2.34
[2]; replicate 2
  Relative MIC (log2): -2.34
[2]; replicate 3
  Relative MIC (log2): -2.34

## CC[C@H](C)CCCCC(=O)N[C@@H](CCN)C(=O)N[C@H](C(=O)N[C@@H](CCN)C(=O)N[C@H]1CCNC(=O)[C@H]([C@@H](C)O)NC(=O)[C@H](CCN)NC(=O)[C@H](CCN)NC(=O)[C@H](CC(C)C)NC(=O)[C@@H](Cc2ccccc2)NC(=O)[C@H](CCN)NC1=O)[C@@H](C)O [Polymyxin B] (X2-[Dab]T[Dab][Dab][Dab][dF]L[Dab][Dab]T; lactam 4-C (inferred); N-terminus assumed)
[1]; KP-MDR (Klebsiella pneumoniae ATCC 700603), evolved line 3
  Relative MIC (log10): 2.408 log10
[1]; KP-MDR (Klebsiella pneumoniae ATCC 700603), evolved line 5
  Relative MIC (log10): 2.408 log10
[1]; KP-MDR (Klebsiella pneumoniae ATCC 700603), evolved line 6
  Relative MIC (log10): 2.408 log10
[1]; KP-MDR (Klebsiella pneumoniae ATCC 700603), evolved line 9
  Relative MIC (log10): 2.408 log10
[1]; KP-MDR (Klebsiella pneumoniae ATCC 700603), evolved line 10
  Relative MIC (log10): 2.408 log10
[1]; [3]
  Relative MIC (log10): 2.408 log10
[1]; [4]
  Relative MIC (log10): 2.709 log10
[1]; [5]
  Relative MIC (log10): 2.709 log10
[1]; [6]
  Relative MIC (log10): 2.709 log10
[1]; [7]
  Relative MIC (log10): 2.709 log10
[2]; replicate 1
  Relative MIC (log2): 0
[2]; replicate 2
  Relative MIC (log2): 0
[2]; replicate 3
  Relative MIC (log2): 0
